Laboratory results reported in the supplement of paper PMC10307832.

How the values were obtained:
Test in all cases: relative viability (nuclei count vs DMSO), 5 days (fraction); higher = more cells survive
Doramapimod + Tozasertib = compound: Cc1ccc(-n2nc(C(C)(C)C)cc2NC(=O)Nc2ccc(OCCN3CCOCC3)c3ccccc23)cc1 [Doramapimod] + Cc1cc(Nc2cc(N3CCN(C)CC3)nc(Sc3ccc(NC(=O)C4CC4)cc3)n2)n[nH]1 [Tozasertib] (partner 0.1 µM)
Outline: (§1)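 Dosing by pin tool came one day after lung cancer cell lines were seeded in 1536-well plates, using either one drug or a fixed anchor-drug dose plus five library-drug doses (not always all listed) in √10 steps. After 5 days, nuclei were counted on 4× images. Relative viability is treated-well nuclei count divided by vehicle-well nuclei count, and values are medians of duplicate plates.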

RAF265 + Palbociclib = compound: Cn1c(Nc2ccc(C(F)(F)F)cc2)nc2cc(Oc3ccnc(-c4ncc(C(F)(F)F)[nH]4)c3)ccc21 [RAF265] + CC(=O)c1c(C)c2cnc(Nc3ccc(N4CCNCC4)cn3)nc2n(C2CCCC2)c1=O [Palbociclib] (partner 0.5 µM)
Outline: as §1

RAF265 + Alpelisib = compound: Cn1c(Nc2ccc(C(F)(F)F)cc2)nc2cc(Oc3ccnc(-c4ncc(C(F)(F)F)[nH]4)c3)ccc21 [RAF265] + Cc1nc(NC(=O)N2CCC[C@H]2C(N)=O)sc1-c1ccnc(C(C)(C)C(F)(F)F)c1 [Alpelisib] (partner 2 µM)
Outline: as §1

RAF265 + Decitabine = compound: Cn1c(Nc2ccc(C(F)(F)F)cc2)nc2cc(Oc3ccnc(-c4ncc(C(F)(F)F)[nH]4)c3)ccc21 [RAF265] + Nc1ncn([C@H]2C[C@H](O)[C@@H](CO)O2)c(=O)n1 [Decitabine] (partner 2 µM)
Outline: as §1

Row | Cell Line | relative viability (Doramapimod + Tozasertib; first compound 0.02 µM) | relative viability (Doramapimod + Tozasertib; first compound 0.06325 µM) | relative viability (Doramapimod + Tozasertib; first compound 0.2 µM) | relative viability (Doramapimod + Tozasertib; first compound 0.6325 µM) | relative viability (Doramapimod + Tozasertib; first compound 2 µM) | relative viability (RAF265 + Palbociclib; first compound 0.01 µM) | relative viability (RAF265 + Palbociclib; first compound 0.03162 µM) | relative viability (RAF265 + Palbociclib; first compound 0.1 µM) | relative viability (RAF265 + Palbociclib; first compound 0.3162 µM) | relative viability (RAF265 + Palbociclib; first compound 1 µM) | relative viability (RAF265 + Alpelisib; first compound 0.01 µM) | relative viability (RAF265 + Alpelisib; first compound 0.03162 µM) | relative viability (RAF265 + Alpelisib; first compound 0.1 µM) | relative viability (RAF265 + Alpelisib; first compound 0.3162 µM) | relative viability (RAF265 + Alpelisib; first compound 1 µM) | relative viability (RAF265 + Decitabine; first compound 0.01 µM) | relative viability (RAF265 + Decitabine; first compound 0.03162 µM) | relative viability (RAF265 + Decitabine; first compound 0.1 µM) | relative viability (RAF265 + Decitabine; first compound 0.3162 µM) | relative viability (RAF265 + Decitabine; first compound 1 µM)
1 | NCI-H23 | 0.622 | 0.34 | 0.366 | 0.433 | 0.326 | 0.499 | 0.342 | 0.304 | 0.262 | 0.206 | 0.738 | 0.601 | 0.643 | 0.416 | 0.222 | 0.335 | 0.317 | 0.258 | 0.266 | 0.175
2 | NCI-H460 | 0.455 | 0.517 | 0.49 | 0.673 | 0.372 | 0.203 | 0.203 | 0.171 | 0.2 | 0.0711 | 0.543 | 0.356 | 0.481 |  | 0.173 | 0.505 | 0.458 | 0.567 | 0.499 | 0.48
3 | HCC-366 | 0.117 | 0.129 | 0.15 | 0.0878 | 0.0672 | 0.403 | 0.312 | 0.286 | 0.205 | 0.137 | 0.404 | 0.432 | 0.539 | 0.579 | 0.124 | 0.321 | 0.319 | 0.402 | 0.331 | 0.213
4 | NCI-H2085 | 0.882 | 0.913 | 0.852 | 0.84 | 0.796 | 0.49 | 0.477 | 0.483 | 0.506 | 0.52 | 1 | 0.961 | 0.85 | 1.03 | 0.891 | 0.547 | 0.506 | 0.571 | 0.587 | 0.59
5 | PC-14 | 0.582 | 0.602 | 0.588 | 0.647 | 0.525 | 0.47 | 0.495 | 0.519 |  | 0.35 | 0.964 | 0.907 | 0.854 | 0.35 | 0.579 | 0.24 | 0.204 | 0.231 | 0.163 | 0.226
6 | HOP-62 | 0.386 | 0.356 | 0.382 | 0.424 | 0.28 | 0.416 | 0.457 | 0.423 | 0.392 | 0.216 | 0.966 |  | 0.948 | 1.07 | 0.58 | 0.223 | 0.215 | 0.238 | 0.226 | 0.186
7 | NCI-H2087 | 0.32 | 0.308 | 0.253 | 0.223 | 0.233 | 0.238 | 0.207 | 0.181 | 0.164 | 0.159 | 0.861 | 0.89 | 0.909 | 0.709 | 0.677 | 0.287 | 0.257 | 0.251 | 0.188 | 0.147
8 | NCI-H1793 | 0.27 | 0.319 | 0.319 | 0.352 | 0.26 | 0.309 | 0.274 | 0.218 | 0.213 | 0.195 | 0.709 | 0.914 | 0.66 | 0.477 | 0.293 | 0.554 | 0.463 | 0.438 | 0.332 | 0.277
